Reference: patent US7910723B2, “IG20 splice variants therapeutics for cancer” (The Board of Trustees of the University of Illinois, priority 2006, dated 2011)

Key:
Assay type in all cases: cell-based
Akt and MADD = assay: TRAIL treatment of HeLa cells: Akt and MADD phosphorylation, caspase-8 activation (immunoblot); settings: TRAIL 50 ng/ml
Method: (A) TRAIL treatment reduces the levels of Akt and MADD phosphorylation, and leads to caspase-8 activation. Hela cells were treated with TRAIL (50 ng/ml). The phosphorylation level of Akt was analyzed by immunoblotting using an anti-phospho Akt antibody. The phosphorylation levels of MADD was analyzed by immunoblotting using the anti-phospho T1041 antibody. Caspase-8 activation was analyzed by immunoblotting using an anti-caspase-8 antibody. (B) TRAIL induces FADD-procaspase-8 binding depending upon MADD phosphorylation status. HeLa cells were transfected either with caAkt or pcDNA3.1 empty vector. Cells were treated with TRAIL for 1 h. The MADD phosphorylation was analyzed by immunoblotting using the anti-phospho T1041 antibody. The association of procaspase-8 and FADD was analyzed by immunoprecipitation using an anti-FADD antibody followed by immunoblotting using an anti-caspase-8 antibody. […] 24 h later cells were treated with TRAIL (50 ng/ml) for 4 hours and caspase-8 activity was analyzed. *p<0.05 vs TRAIL+caAkt. […] The localizations of phosphorylated and nonphosphorylated forms of MADD in the membrane and cytosolic fractions were analyzed by immunoblotting using the anti-phospho T1041 antibody. […] The Bax distribution in cytoplasm and HM was analyzed by immunoblotting using an anti-Bax antibody. […] The distributions of Bax in cytoplasm and HM were analyzed as described for (E). […]

MADD [1] = assay: Phosphorylation of exogenous wtMADD in HEK293 cells (anti-phospho antibodies); settings: HEK293 transfected with wtMADD; LY 10 μM 1 h, IGF-1 150 ng/ml 20 minutes
Method: (A) In vitro phosphorylation of rMADD by Akt. GST-wtMADD or -MADD mutants were expressed in bacteria, purified, and then incubated with rAkt and γ[^32P] ATP. After 1 h incubation at 30° C., the products were resolved on SDS-PAGE and ^32P-labeled proteins were visualized by autoradiography. (B) MADD is labeled by [^32P]orthophosphate in vivo. HEK293 cells were transfected with wtMADD or MADD mutant constructs. Twenty-four hours after transfection cells were incubated with 0.3 mCi/ml [32P]orthophosphate for 6 h. MADD was immunoprecipitated with an anti-YFP antibody. The precipitated MADD was separated by SDS-PAGE, transferred to a nitrocellulose membrane, and subjected to autoradiography. Loaded MADD was visualized by staining the same membrane with an anti-YFP antibody. (C) HEK293 cells were transfected with cDNAs for wtMADD or MADD mutants and. 36 h later the cells were harvested for immunoblotting using the anti-phospho-S-70, -T-173 or -T-1041 antibodies. An anti-YFP antibody was used to detect exogenous MADD. (D) HEK293 cells were transfected with wtMADD and 24 hours later cells were serum starved for 20 h. Subsequently, they were treated with LY (10 μM) for 1 h and/or IGF-1 (150 ng/ml) for 20 minutes. The cell lysates were immunoblotted and probed with anti phospho-specific antibodies or an anti-YFP antibody. […]

MADD [2] = assay: Phosphorylation of endogenous MADD in HeLa cells (anti-phospho antibodies); settings: LY 10 μM 1 h, IGF-1 150 ng/ml 20 minutes
DR4 = assay: Association of exogenous MADD with DR4 in HEK293 cells (immunoprecipitation)
Method: (A) Phosphorylation status of MADD could influence its binding to DR4. HEK293 cells were transfected with wtMADD or MADD mutants. 36 h after transfection, the cells were harvested for immunoprecipitation using an anti-DR4 antibody followed by immunoblotting using an anti-YFP antibody to detect exogenous MADD. The membrane was reprobed with an anti-DR4 antibody to show the protein loading. (B) PI3K can influence the association of exogenous MADD with DR4. HEK293 cells were transfected with wtMADD. Twenty four hours after transfection, the cells were serum starved for 20 h. Further, they were treated with LY (10 μM) for 1 h, IGF-1 (150 ng/ml) for 20 minutes. Immunoprecipitation using an anti-DR4 antibody was followed by immunoblotting using anti-YFP or anti-DR4 antibody. (C) Akt can influence exogenous MADD association with DR4. HEK293 cells were co-transfected with wtMADD along with DN-Akt or the empty vector pcDNA3.1 (pcDNA). Thirty six hours after transfection, the cells were harvested for immunoprecipitation using anti-DR4 antibody followed by immunoblotting with an anti-YFP or an anti-DR4 antibody. (D) PI3K can influence the association of endogenous MADD with DR4. HeLa cells were serum starved for 20 h, then treated with LY (10 μM) for 1 h, IGF-1 (150 ng/ml) for 20 minutes. Immunoprecipitation using an anti-DR4 antibody was followed by immunoblotting with an anti-MADD or an anti-DR4 antibody. (E) Akt can influence the association of endogenous MADD with DR4. HeLa cells were transfected with DN-Akt or pcDNA. Thirty six hours after transfection, the cells were collected for immunoprecipitation using an anti-DR4 antibody followed by immunoblotting with an anti-MADD antibody.
MADD can bind to DR4 and thereby block the activation of the extrinsic apoptotic pathway. […] Stimulation of PI3K by IGF-1 increased, while inhibition by LY reduced, the association between wtMADD and DR4 (FIG. 15B). […] This interaction was reduced in the presence of LY (FIG. 15D) or DN-Akt (FIG. 15E).
Immunoprecipitation. Immunoprecipitations were performed using standard procedures. The samples were precleared with 10% (vol/vol) Protein-A agarose (Roche) for 1 h on a rocking platform. Specific antibodies were added and rocked for 1 h. Immunoprecipitates were captured by incubating with 10% (vol/vol) Protein-A agarose for an hour. The agarose beads were spun down and washed three times with NET/NP40 buffer (150 mM NaCl, 2 mM EDTA, 50 mM Tris-HCl pH 7.5, 0.1% NP-40). The antigens were released and denatured by adding SDS sample buffer. Immunoblots were prepared and analysed as described above.

Substance	Caspase-8 activation (Akt and MADD)	Levels of phosphorylation of Akt and MADD (Akt and MADD)	S70, T173 and T1041 phosphorylation levels of MADD (MADD [1])	Phosphorylation of endogenous MADD (MADD [2])	Association of exogenous MADD with DR4 (DR4)
tumor necrosis factor-related apoptosis-inducing ligand [TRAIL]	concomitant activation of caspase-8	reduced			
insulin-like growth factor-1 [IGF-1]			increased	phosphorylated at all three sites	increased
